Read-outs that look alike come from different tables or passages of the source.
Key:
[1] = test system: cytokine production in whole blood; experiment: In vitro LPS/R848-induced cytokine production assay in whole blood; format: cell-based, human; conditions: read-out: TNF-α production IC50
Procedure: Compounds of the present invention were also studied in in vitro LPS/R848/CpG-induced cytokine production assays. Exemplary protocols follow.
Whole Blood (LPS): 13 mL of whole blood solution was prepared by combining whole blood in no serum medium with a ratio of 1:1. Cells were seeded in a 96-well plate with 130 ul/well of the cell suspension according to the plate map. 9 ul of 30 mM compound solution was added into the wells in the assigned rows, then serial solutions with 4× dilutions were made. That is, add 9 uL of 100% DMSO into each of the rest wells and take 3 uL of compound solution from the one-step higher concentration solution and mix well with the DMSO. For the second compound master plate, 196 uL of the growth medium (no serum media) were added into each of the wells and 4 uL of the compound solution from the first compound master plate was added and mixed with the media. Cells were treated for 0.5 h by adding 20 uL of the compound and the control solutions prepared in the second master plate to each well according to the plate map. Cells were stimulated with a) 0.1 ug/mL of LPS overnight for whole blood assay; b) 0.01 ug/mL of LPS overnight for hWBC assay. Plates were sealed with sealing films and the plates were centrifuged at 3000 rpm at 4 degrees C. for 5 min. The supernatants were transferred, and 100 ul of working Capture antibody solution was added to each well. The plates were sealed and incubated overnight at RT. IL-6, IFN-α or TNF-α detection antibody labeled with biotin: Added 100 uL of the Detection Antibody solution to each well. Covered the plate and incubated for 2 h at RT. Added 100 uL of Streptavidin-HRP solution to each well. Covered the plate and incubate for 20 min at RT in dark. Added 100 uL of Substrate Solution to each well. Incubated for 20 min at RT in dark. Added 50 uL of Stop Solution to each well. Gently tapped the plate to ensure thorough mixing. Determined the optical density of each well immediately, using a microplate reader set to 450 nm and also read at 540 nm or 570 nm for correction if wavelength correction is not available.

[2] = test system: LPS induced TNF production; experiment: In vivo LPS-induced cytokine production in rats; design: species or system female Lewis rats; conditions: for drug concentration corresponding to the minimal efficacious dose: 10 mg/kg PO; for minimal efficacious dose for inhibition of LPS induced TNF production in vivo: PO in 0.5% methylcellulose, LPS 2 hours after dose, serum TNF-α one hour later
Procedure: Compounds of the present invention were also assayed in vivo to determine their inhibitory effect on LPS-induced cytokine production. In vivo studies of LPS-induced cytokine production was conducted in female Lewis rats (n=10 each). Rats were dosed with compound at 30, 10, 3, or 1 mg/kg, 5 mg/kg dexamethasone, or vehicle, dosed PO in 0.5% methylcellulose. After 2 hours, rats were administered LPS in PBS at 0.1 mg/mL, 1 mL/kg. One hour later, rats were bled and serum was analyzed for TNF-α produced by ELISA (eBioscience).

IRAK4 = biological target: T1, IRAK4 (Homo sapiens, UniProt Q9NWZ3); experiment: IRAK-4 activity inhibition assay (Caliper); format: biochemical; conditions: 3.5 nM IRAK4, 37 μM ATP, 1.5 μM Peptide 8
T1 construct: purchased CARNA Bioscience 09-145
T1 sequence (Q9NWZ3 1-460): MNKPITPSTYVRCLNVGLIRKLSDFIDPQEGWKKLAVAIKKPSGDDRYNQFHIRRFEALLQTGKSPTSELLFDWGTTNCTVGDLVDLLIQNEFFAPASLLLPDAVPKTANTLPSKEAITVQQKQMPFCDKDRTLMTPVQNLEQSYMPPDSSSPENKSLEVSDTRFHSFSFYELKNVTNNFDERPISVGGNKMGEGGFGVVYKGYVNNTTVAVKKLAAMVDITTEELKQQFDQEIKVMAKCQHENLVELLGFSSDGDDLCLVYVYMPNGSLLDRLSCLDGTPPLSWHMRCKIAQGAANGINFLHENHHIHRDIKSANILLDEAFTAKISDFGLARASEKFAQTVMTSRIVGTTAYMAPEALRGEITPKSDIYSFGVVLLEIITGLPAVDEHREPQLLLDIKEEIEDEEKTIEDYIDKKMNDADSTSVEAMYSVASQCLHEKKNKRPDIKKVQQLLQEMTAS
How it was run: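 Caliper mobility-shift assay: 3.5 nM IRAK4 preincubated 10 min with compound (10-point series, duplicates), then 1.5 μM peptide 8 and 37 μM ATP added in HEPES pH 7.5 with Mg2+/Mn2+ and DTT, 40 min at 28°C before EDTA stop. Percent inhibition from substrate conversion relative to DMSO and no-enzyme controls.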

[3] = Homo sapiens, LPS 0.1 uM, overnight

Compound | IC50 ([1]; LPS 0.1 uM, overnight) [nM] | IC50 ([1]; R848 1 uM, 20 h) [nM] | drug concentration corresponding to the minimal efficacious dose [2] [µM] | minimal efficacious dose for inhibition of LPS induced TNF production in vivo [2] [mg/kg] | IC50 (IRAK4) [nM] | IC50 [1, 3] [nM] | IC50 ([1]; Homo sapiens, R848 1 uM, 20 h) [nM]
2-methyl-N5-(1-methyl-1H-pyrazol-4-yl)-N7-((1r,4r)-4-morpholinocyclohexyl)thiazolo[5,4-d]pyrimidine-5,7-diamine [Compound I-24] | ≥ 5000 | 1000 to 5000 | 6.6 | 10 | ≤ 1000 |  | 
CCc1nc2c(N[C@H]3CC[C@H](N4CCOCC4)CC3)nc(Nc3cnn(C)c3)nc2s1 [Compound I-7, 2-ethyl-N5-(1-methyl-1H-pyrazol-4-yl)-N7-((1r,4r)-4-morpholinocyclohexyl)-thiazolo[5,4-d]pyrimidine-5,7-diamine] |  |  | 1.6 | 10 | ≤ 1000 | ≥ 5000 | 1000 to 5000
CCc1nc2c(N[C@H]3CC[C@H](N4CCOCC4)CC3)nc(Nc3cnn(C4CCOCC4)c3)nc2s1 [Compound I-9, 2-ethyl-5-N-[1-(oxan-4-yl)-1H-pyrazol-4-yl]-7-N—[trans-4-(morpholin-4-yl)cyclohexyl]-[1,3]thiazolo[5,4-d]pyrimidine-5,7-diamine] |  |  | 1.05 | 10 | ≤ 1000 | 1000 to 5000 | 250 to 1000
